Measurements: US20240197715A1, “PHARMACEUTICAL COMBINATIONS AND USES THEREOF” (NOVARTIS AG, priority 2022, published 2024)
Where “and” joins values, the source holds several entries; their conditions need not be identical. Identical values can stand only once.

Tests used:
Format in all cases: in vivo
[1] = Body weight / tolerability in SW620 tumor-bearing nude mice; settings: SW620 study; 21-days TMZ cycle
Description: (§1) Tumor volumes (TVol), determined from caliper measurements (using the formula I*w2*π/6) were measured two times per week. Tumor response was quantified by the change in tumor volume (endpoint minus starting value in mm^3) as the T/C (the ratio between the tumor volume in the treated group and in the untreated control group). In the case of a tumor regression or to assess the percentage of change in TVol, the tumor response was quantified by the percentage of regression of the starting TVol. The body-weight (BW) of the animal was measured three times per week allowing calculation at any particular time-point relative to the day of initiation of treatment (day 0) of the percentage change in BW (4% BW).

[2] = test system: SHP-77 (CRL-2195, ATCC) MSS small cell lung carcinoma xenografts; assay: SHP-77 MSS SCLC xenograft efficacy in nude mice; settings: SHP77; TMZ 25 mg/kg p.o. 5 consecutive days within 28 days cycle
Description: SHP-77 (CRL-2195, ATCC) is a MSS small cell lung carcinoma (SCLC). It was cultured in RPMI 1640 Medium, GlutaMAX™ (#61870036, GIBCO) supplemented with 10% FCS (#2-O-1F30-I, BioConcept). Cells were passaged by washing first with Dulbecco's PBS without Ca^2+/Mg^2+ (#3-05F29-1, AMIMED), trypsinising cells with Trypsin 0.05% in PBS with EDTA (#5-51F00-H, AMIMED), centrifuging in the respective culture media, and splitting cells into fresh media at a ratio of 1:8, 2 times per week.
Athymic nude mice (Charles River, Germany) were allowed to adapt for 7 days upon arrival at the animal facility and housed in a pathogen-controlled environment (5 mice/Type III cage) with access to food and water ad libitum. Animals were identified with transponders. […]
as §1, with “I*w2*TT/6)” for “I*w2*π/6)”, “T/C.” for “T/C (the ratio between the tumor volume in the treated group and in the untreated control group).”

[3] = test system: SW620 (CCL-227, ATCC) MSS colorectal carcinoma xenografts; assay: SW620 MSS CRC xenograft efficacy in nude mice; settings: SW620; TMZ p.o. 5 consecutive days within 21 days cycle (100 mg/kg)
Description: SW620 (CCL-227, ATCC) [MSS colorectal carcinoma (CRC)] was cultured in DMEM (#1-26F01-I, AMIMED) supplemented with 10% FCS (#2-0-1F30-I, BioConcept), 4 mM L-glutamine (#5-10K50-H, BioConcept) and 1 mM Sodium pyruvate (#5-60F00-H, BioConcept). Cells were passaged by washing first with Dulbecco's PBS without Ca^2+/Mg^2+ (#3-05F29-1, AMIMED), trypsinising cells with Trypsin 0.05% in PBS with EDTA (#5-51F00-H, AMIMED), centrifuging in the respective culture media, and splitting cells into fresh media at a ratio of 1:8, 2 times per week.
Athymic nude mice (Charles River, Germany) were allowed to adapt for 7 days upon arrival at the animal facility and housed in a pathogen-controlled environment (5 mice/Type III cage) with access to food and water ad libitum. Animals were identified with transponders. Studies described in this report were performed according to procedures covered by a permit number issued by the Kantonales Veterinäramt Basel-Stadt.
Subcutaneous tumors were initiated by injecting 5.0×10^6 SW620 tumor cells in 50% Matrigel (#354234, Corning) in HBSS (#H6648, SIGMA) in the right flank of nude mice. The efficacy experiment (n=6), started 11 days post-cell injection.
Compound A and Temozolomide were made-up fresh on a weekly basis and kept at 4° C. and protected from light. Compound A was dissolved in 20% Hydroxypropyl-ß-Cyclodextrine (HP-ß-CD, #H107-100G, SIGMA) in UltraPure™ Water (#10977-035, Invitrogen) and administered p.o. at 10 ml/kg. Temozolomide was dissolved in 30% PEG-400 (#202398-500G, SIGMA) and 70% Dulbecco's PBS without Ca^2+/Mg^2+ (#3-05F29-1, AMIMED) and administered p.o. at 10 mL/kg on 5 consecutive days within a 21 days cycle. Irinotecan was made-up fresh for each treatment once a week by diluting with NaCl 0.9% (#3-06S00-I, BioConcept). The solution was administered i.v. at 5 mL/kg.
as §1
At day 43 post-cell injection, irinotecan was administered intravenously at 15 mg/kg once weekly for 7 weeks in combination with Compound A, also administered from day 43, orally at 120 mg/kg daily for 52 days.
Starting 11 days post-cell injection, temozolomide was administered orally on a 21 day cycle of 5 consecutive days at 100 mg/kg on 5 consecutive days (day 11 to day 15 and day 32 to day 36). At day 43 post-cell injection, to the first group irinotecan was administered intravenously at 15 mg/kg once weekly for 6 weeks, and to the second group irinotecan was administered intravenously at 15 mg/kg once weekly for 6 weeks in combination with Compound A, also administered from day 43, orally at 120 mg/kg daily for 46 days.

[4] = Body weight / tolerability in T84 tumor-bearing nude mice; settings: T84 study; 28-days TMZ cycle
Description: as §1, with “I*w2*TT/6)” for “I*w2*π/6)”, “T/C.” for “T/C (the ratio between the tumor volume in the treated group and in the untreated control group).”

[5] = Body weight / tolerability in SHP-77 tumor-bearing nude mice; settings: SHP-77 study; single agent
Description: as §1, with “I*w2*TT/6)” for “I*w2*π/6)”, “T/C.” for “T/C (the ratio between the tumor volume in the treated group and in the untreated control group).”

SMILES: Cn1nnc2c(C(N)=O)ncn2c1=O [temozolomide]
- body weight change [1]: dose-dependent body weight loss but mice always recovered at the end of the 21-days cycle
- tumor regression after 2 cycles [2]: 90%
- tumor regression after 1 cycle of temozolomide [3]: 30-50% and 40%
- body weight change [4]: slight body weight loss but mice always recovered at the end of the 28-days cycle
- tolerability [5]: well tolerated
